Experimental data as given in PMC9640540, “An LH1–RC photocomplex from an extremophilic phototroph provides insight into origins of two photosynthesis proteins” (Communications Biology, 2022).

Molecular target: T1, reaction center (RC) of the LH1–RC complex (Rhodopila globiformis, UniProt A0A2S6NEG7+A0A2S6NEP5)
T1 construct: gene CCS01_15140; native LH1-RC core complex purified from chromatophores (LDAO, then DDM); closed LH1 ring; with Reaction center protein H chain; Photosynthetic reaction center cytochrome c subunit
T1 sequence (A0A2S6NEG7 1-275): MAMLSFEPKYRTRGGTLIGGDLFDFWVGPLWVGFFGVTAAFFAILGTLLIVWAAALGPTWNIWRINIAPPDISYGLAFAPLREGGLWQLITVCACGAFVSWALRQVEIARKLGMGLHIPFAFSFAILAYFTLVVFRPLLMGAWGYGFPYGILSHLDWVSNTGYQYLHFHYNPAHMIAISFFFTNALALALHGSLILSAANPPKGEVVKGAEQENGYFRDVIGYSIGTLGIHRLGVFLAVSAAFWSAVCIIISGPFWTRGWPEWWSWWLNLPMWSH
T1 sequence (A0A2S6NEP5 1-326): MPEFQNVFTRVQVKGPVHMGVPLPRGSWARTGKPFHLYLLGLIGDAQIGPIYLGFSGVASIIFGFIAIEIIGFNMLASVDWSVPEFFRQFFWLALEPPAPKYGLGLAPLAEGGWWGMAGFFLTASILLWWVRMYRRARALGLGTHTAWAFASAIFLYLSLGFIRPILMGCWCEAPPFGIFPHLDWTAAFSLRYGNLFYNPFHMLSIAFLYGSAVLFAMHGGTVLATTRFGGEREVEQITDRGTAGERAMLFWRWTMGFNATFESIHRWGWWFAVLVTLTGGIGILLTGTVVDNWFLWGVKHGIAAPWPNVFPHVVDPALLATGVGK
T1 sequence (A0A2S6MZS1 1-258 partner): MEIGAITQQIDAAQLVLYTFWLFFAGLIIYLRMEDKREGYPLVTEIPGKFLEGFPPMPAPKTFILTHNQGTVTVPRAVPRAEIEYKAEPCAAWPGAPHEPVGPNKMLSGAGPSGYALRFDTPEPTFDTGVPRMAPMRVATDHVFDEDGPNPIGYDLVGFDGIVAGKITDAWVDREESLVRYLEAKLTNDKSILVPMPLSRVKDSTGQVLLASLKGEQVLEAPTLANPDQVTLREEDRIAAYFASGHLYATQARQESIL
T1 sequence (A0A2S6NEK5 1-344 partner): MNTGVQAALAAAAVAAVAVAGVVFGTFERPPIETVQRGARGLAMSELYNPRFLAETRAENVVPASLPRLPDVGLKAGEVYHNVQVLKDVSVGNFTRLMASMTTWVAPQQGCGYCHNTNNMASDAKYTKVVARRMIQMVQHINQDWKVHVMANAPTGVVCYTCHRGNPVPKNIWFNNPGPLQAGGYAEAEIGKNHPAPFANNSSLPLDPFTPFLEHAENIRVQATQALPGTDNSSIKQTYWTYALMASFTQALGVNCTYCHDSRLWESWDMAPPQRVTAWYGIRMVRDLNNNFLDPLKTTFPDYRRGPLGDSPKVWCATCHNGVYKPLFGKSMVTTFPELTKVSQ
Assay: cryo-EM structure, […] Å
Format: binding

Question: For CC[C@H]1c2cc3[nH]c4c(c3C)C(=O)[C@H](C(=O)OC)c4c3nc(cc4[nH]c(cc(n2)[C@@H]1C)c(C(C)=O)c4C)[C@@H](C)[C@@H]3CCC(=O)OC/C=C(\C)CCC[C@H](C)CCC[C@H](C)CCCC(C)C [BPhe a], which “cryo-EM structure, 2.24 Å” value is on record?
Answer: BPhe a, magenta sticks
